Literature values as cited in patent US8916340B2, “Method for identifying and validating dominant T helper cell epitopes using an HLA-DM-assisted class II binding assay” (The John Hopkins University, priority 2006, dated 2014).

Target: HLA-DR1 (Homo sapiens, UniProt P01903+P01911)
Conditions: short-lived, DM-sensitive complex of peptide with HLA-DR1

Chain of HLA-DR1 (P01903 26-216, other chains not shown): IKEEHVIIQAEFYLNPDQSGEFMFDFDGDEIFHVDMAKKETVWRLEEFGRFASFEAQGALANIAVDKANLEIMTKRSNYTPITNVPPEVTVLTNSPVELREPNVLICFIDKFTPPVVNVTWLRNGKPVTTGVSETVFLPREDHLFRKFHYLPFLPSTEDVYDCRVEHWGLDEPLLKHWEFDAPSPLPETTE

## PKAVKQNTLKLAT [HAy308A]
  t1/2 of complex with HLA-DR1: 34 min
